Experimental findings from US7501417B2, “Aminocarbonyl-derivatives as novel inhibitors of histone deacetylase” (Janssen Pharmaceutica, N.V., priority 2002, dated 2009) are described below.

As usually defined, the solubility is the concentration that dissolves in the medium under given conditions. As usually defined, the melting point is the temperature, or range, at which the solid turns liquid.

The structures appear in SMILES notation. ≈ marks a conversion by molar mass, not a printed value.

Series [1] addresses HDAC (HeLa nuclear extracts). Put plainly: In vitro assay for inhibition of histone deacetylase. The series is classed as biochemical. The note with it: [3H]acetylated histone H4 peptide substrate. On the procedure: The in vitro assay for inhibition of histone deacetylase (see example C.1) measures the inhibition of HDAC enzymatic activity obtained with the compounds of formula (I).
HeLa nuclear extracts (supplier: Biomol) were incubated at 60 μg/ml with 2×10^−8 M of radiolabeled peptide substrate. As a substrate for measuring HDAC activity a synthetic peptide, i.e. the amino acids 14-21 of histone H4, was used. The substrate is biotinylated at the NH2-terminal part with a 6-aminohexanoic acid spacer, and is protected at the COOH-terminal part by an amide group and specifically [^3H]acetylated at lysine 16. The substrate, biotin-(6-aminohexanoic)Gly-Ala-([^3H]-acetyl-Lys-Arg -His-Arg-Lys-Val-NH2), was added in a buffer containing 25 mM Hepes, 1 M sucrose, 0.1 mg/ml BSA and 0.01% Triton X-100 at pH 7.4. After 30 min the deacetylation reaction was terminated by the addition of HCl and acetic acid. (final concentration 0.035 mM and 3.8 mM respectively). After stopping the reaction, the free ^3H-acetate was extracted with ethylacetate. After mixing and centrifugation, the radioactivity in an aliquot of the upper (organic) phase was counted in a β-counter.
For each experiment, controls (containing HeLa nuclear extract and DMSO without compound), a blank incubation (containing DMSO but no HeLa nuclear extract or compound) and samples (containing compound dissolved in DMSO and HeLa nuclear extract) were run in parallel. In first instance, compounds were tested at a concentration of 10^−5M. […] In each test the blank value was subtracted from both the control and the sample values. The control sample represented 100% of substrate deactylation. For each sample the radioactivity was expressed as a percentage of the mean value of the controls. […] Herein the effects of test compounds are expressed as pIC50 (the negative log value of the IC50-value).

Series [2] has as its system A2780 ovarian carcinoma cells. Description: Determination of antiproliferative activity on A2780 cells (MTT). Format: cell-based. The following applies: Homo sapiens, 96 h, four days of incubation, read-out: Cellular activity pIC50 (converted). How it is done:
Cellular activity of the compounds of formula (I) was determined on A2780 tumour cells using a colorimetric assay for cell toxicity or survival (Mosmann Tim, Journal of Immunological Methods 65: 55-63, 1983)(see example C.2).
All compounds tested were dissolved in DMSO and further dilutions were made in culture medium. Final DMSO concentrations never exceeded 0.1% (v/v) in cell proliferation assays. Controls contained A2780 cells and DMSO without compound and blanks contained DMSO but no cells. MTT was dissolved at 5 mg/ml in PBS. A glycine buffer comprised of 0.1 M glycine and 0.1 M NaCl buffered to pH 10.5 with NaOH (1 N) was prepared (all reagents were from Merck).
The human A2780 ovarian carcinoma cells (a kind gift from Dr. T. C. Hamilton [Fox Chase Cancer Centre, Pennsylvania, USA]) were cultured in RPMI 1640 medium supplemented with 2 mM L-glutamine, 50 μg/ml gentamicin and 10% fetal calf serum. Cells were routinely kept as monolayer cultures at 37° C. in a humidified 5% CO2 atmosphere. Cells were passaged once a week using a trypsin/EDTA solution at a split ratio of 1:40. All media and supplements were obtained from Life Technologies. Cells were free of mycoplasma contamination as determined using the Gen-Probe Mycoplasma Tissue Culture kit (supplier: BioMérieux).
Cells were seeded in NUNC™ 96-well culture plates (Supplier: Life Technologies) and allowed to adhere to the plastic overnight. Densities used for plating were 1500 cells per well in a total volume of 200 μl medium. After cell adhesion to the plates, medium was changed and drugs and/or solvents were added to a final volume of 200 μl. Following four days of incubation, medium was replaced by 200 μl fresh medium and cell density and viability was assessed using an MTT-based assay. To each well, 25 μl MTT solution was added and the cells were further incubated for 2 hours at 37° C. The medium was then carefully aspirated and the blue MTT-formazan product was solubilized by addition of 25 μl glycine buffer followed by 100 μl of DMSO. […] Within an experiment, the results for each experimental condition are the mean of 3 replicate wells. For initial screening purposes, compounds were tested at a single fixed concentration of 10^−6 M. For active compounds, the experiments were repeated to establish full concentration-response curves. For each experiment, controls (containing no drug) and a blank incubation (containing no cells or drugs) were run in parallel. The blank value was subtracted from all control and sample values. For each sample, the mean value for cell growth (in absorbance units) was expressed as a percentage of the mean value for cell growth of the control. […] Herein the effects of test compounds are expressed as pIC50 (the negative log value of the IC50-value).

A short description of series [3]: Kinetic solubility in aqueous media (nephelometry). Format: physicochemical. The following applies: aqueous buffer, kinetic from dmso stock; phosphate citrate buffer pH 7.4, turbidity of three dilution steps; read-out: Solubility Score. On the procedure:
Kinetic solubility in aqueous media measures the ability of a compound to stay in aqueous solution upon dilution (see example C.3).
DMSO-stock solutions are diluted with a single aqueous buffer solvent in 3 consecutive steps. For every dilution turbidity is measured with a nephelometer.
In the first dilution step, 10 μl of a concentrated stock-solution of the active compound, solubilized in DMSO (5 mM), was added to 100 μl phosphate citrate buffer pH 7.4 and mixed. In the second dilution step, an aliquot (20 μl) of the first dilution step was further dispensed in 100 μl phosphate citrate buffer pH 7.4 and mixed. Finally, in the third dilution step, a sample (20 μl) of the second dilution step was further diluted in 100 μl phosphate citrate buffer pH 7.4 and mixed. All dilutions were performed in 96-well plates. Immediately after the last dilution step the turbidity of the three consecutive dilution steps were measured with a nephelometer. Dilution was done in triplicate for each compound to exclude occasional errors. Based on the turbidity measurements a ranking is performed into 3 classes. Compounds with high solubility obtained a score of 3 and for this compounds the first dilution is clear. Compounds with medium solubility obtained a score of 2. For these compounds the first dilution is unclear and the second dilution is clear. […] The solubility of 3 compounds was measured.

For the compound `Cc1ccc(NC(=O)N2CCN(c3ccc(C(=O)NO)cc3)CC2)cc1` [Co. No. 1], in series [1], the “Enzyme activity pIC50” value was 6.754. Besides, the IC50 in series [2] was 4700 nM. Further, the solubility in series [3] is less than 75.8 µM.
Consider `Cc1ccc(NC(=O)N2CCN(c3ccc(C(=O)NCCO)cc3)CC2)cc1` [Co. No. 2], for which, in series [1], the “Enzyme activity pIC50” value is listed as less than 5. Besides, the IC50 in series [2] was greater than 10000 nM.
Consider `Cc1ccc(NC(=O)N2CCN(c3ccc(NC(=O)CS)cc3)CC2)cc1` [Co. No. 3], for which the “Enzyme activity pIC50” value in series [1] is 5.332. Besides, the IC50 in series [2] is greater than 10000 nM.
On to `O=C(NO)c1cnc(N2CCN(C(=O)N(c3ccccc3)c3ccccc3)CC2)nc1` [Co. No. 4], for which the “Enzyme activity pIC50” value in series [1] was found to be 7.127. Besides, the IC50 in series [2] was 769 nM.
With `O=C(NCC1CCN(c2ncc(C(=O)NO)cn2)CC1)Nc1ccc(-c2ccccc2)cc1` [Co. No. 5], the melting point was greater than 260 °C. The “Enzyme activity pIC50” value in series [1] turned out to be 7.65. The IC50 in series [2] was 711 nM. For the same compound, the solubility in series [3] was in the range of 75.8 to 454 µM (≈ 33.8 to 203 µg/mL).
`O=C(NO)c1cnc(N2CCN(C(=O)Nc3ccc(-c4ccccc4)cc3)CC2)nc1` [Co. No. 6] displayed a melting point greater than 260 °C. Moreover, the “Enzyme activity pIC50” value in series [1] was found to be 7.728. Also, the IC50 in series [2] is 277 nM. In addition, the solubility in series [3] was greater than 454 µM.
Take `Cc1cccc(C)c1NC(=O)N1CCN(c2ccc([N+](=O)[O-])cc2C(=O)NO)CC1` [compound 30]: the “Enzyme activity pIC50” value in series [1] is given as greater than 5.
Regarding `CN(C(=O)N1CCN(c2ncc(C(=O)NO)cn2)CC1)c1ccccc1` [compound 48], the “Enzyme activity pIC50” value in series [1] was found to be 7.163. Also, the IC50 in series [2] was 723 nM.
